{"source": "patent US20240189263A1", "about": "“DERIVATIZED C60 MOLECULES AND METHODS AND MATERIALS FOR USING DERIVATIZED C60 MOLECULES TO REDUCE RADIATION INJURY” (Mayo Foundation for Medical Education and Research, priority 2021, published 2024)", "key": {"[1]": {"assay": "Stability of C60-ser, hexakis-adduct peak by HPLC-ELSD", "format": "physicochemical", "method": "Stability of the C60-ser product as prepared in Example 1 was analyzed by measuring the hexakis-adduct peak with high performance liquid chromatography (HPLC) equipped with evaporative light scattering detector (ELSD). The C60-ser was stored as a solid form at 4° C. under nitrogen, as a solution in DI water at 4° C., and as a solution in DI water at room temperature. The stability of the C60-ser in each set of storage conditions was measured at 1, 7, 28, and 120 days (Table 1)."}, "HepG2 cells": {"test_system": "HepG2 cells", "assay": "MTS cytotoxicity assay, HepG2", "format": "cell-based", "conditions": "HepG2, 1-1000 μM, 24, 48 or 72 hours", "method": "(§1) Cytotoxicity of C60-ser was determined by an MTS (3-(4,5-dimethylthiazol-2-yl)-5-(3-carboxymethoxyphenyl)-2-(4-sulfophenyl)-2H-tetrazolim) colorimetric assay on four different cell lines, each representing a different cell type. Specifically, HepG2 (liver epithelium), HUVEC (endothelial cells), N2A (neuroblastoma cells representative of normal neurons), and NIH3T3 (fibroblasts) were analyzed. The cells were seed in a 96-well tissue culture polystyrene plate at different seeding concentrations based on the cell's doubling time. HUVEC cells were seeded at 10,000 cells/well (24 hour experiments), 8,000 cells/well (48 hour experiments), and 5,000 cells/well (72 hour experiments), and incubated for 24 hours in a humidified atmosphere with 5% C02 at 37° C. […] After incubation with MTS, the optical density (OD) of the resulting formazan solution was read at 490 nm using a microplate reader (Biotek Cytation 5 cell Imaging Multi-Mode reader, Winooski, VT). The cell viability was obtained by normalizing the absorbance of the sample with that of the control wells containing untreated cells. The cell viability was expressed as a percentage, assigning the viability of non-treated cells as 100%. […]"}, "N2A cells": {"test_system": "N2A cells", "assay": "MTS cytotoxicity assay, N2A", "format": "cell-based", "conditions": "1-1000 μM, 24, 48 or 72 hours", "method": "as §1"}, "NIH3T3 cells": {"test_system": "NIH3T3 cells", "assay": "Classic clonogenics survival assay of irradiated cells, NIH3T3", "format": "cell-based", "method": "A classic clonogenics assay was performed to further test the ability of C60-ser to protect against radiation damage. After irradiation, a fraction of the cells will undergo radiation-induced death, whereas other cells remain metabolically active and are able to undergo a few cycles of mitosis before meeting their endpoint. Since many cells remain metabolically activity, classic toxicity measurements such as an MTT measurement are not able to catch the full effects of radiation damage. In contrast, a classic clonogenics assay, which plates a known number of cells and tracks development of colonies, is able to track the number of cells that maintain their clonogenicity. With increasing radiation doses, the fraction of cells that maintain clonogenicity decrease. Therefore, a successful radioprotectant is able to increase the number of surviving colonies compared to the control at the same radiation doses.\nN2A, NIH3T3, and HepG2 cells were plated in 35 mm dishes and treated with 100 μM C60-ser for 2 hours prior to washing with PBS and irradiation at 0, 2, 4, and 6 Gy with a 230 MeV proton beam. Following radiation, a known number of cells were re-plated in six well plates and allowed to grow in culture for 8-14 days to allow for colony formation. To account for cell death with higher radiation doses, a larger number of cells were plated with increasing doses received. […]"}, "HUVEC cells": {"test_system": "HUVEC cells", "assay": "DNA damage, γH2AX foci immunofluorescence, HUVEC", "format": "cell-based", "method": "To test the ability of C60-ser to protect against radiation injury, the level of DNA damage in response to radiation was analyzed by measuring γH2AX. The H2AX protein becomes phosphorylated into γH2AX as a result of DNA double strand breaks. This allows for the visualization and quantification of double strand break foci through immunofluorescence analysis. Cells were plated on 8 chamber slides and incubated overnight before C60-ser treatment. Three sets of slides per cell line (to be irradiated with 0, 0.5, and 1 Gy) were prepared, with the top 4 rows used as a control and the bottom 4 rows incubated with 100 μM C60-ser. Cells were incubated with C60-ser for 2 hours before irradiation with a clinical Proteus One proton machine (Ion Beam Applications, Louvain-la-Neuve, Belgium). A 230 MeV mono-energetic unmodulated broad beam of large field size that encompassed all slides containing the cells was used to deliver the 0.5 and 1 Gy doses. White solid water slabs (IBA Dosimetry, Germany) provided the necessary phantom material to place the cells at the desired 8 cm depth with an LET of approximately 1.7 keV/μm. After irradiation, cells were incubated at 37° C. with 5% CO2 for 30 minutes before washing and fixing the cells with 1% formaldehyde. The cells were permeabilized with 1% NP-40 and incubated with 5% BSA to block unspecific antibody bonding. The cells were then incubated with γH2AX primary antibody followed by a secondary antibody. Mounting media containing DAPI was used before applying cover slips and sealing the samples. Cells were imaged on an Olympus IX71 trinocular inverted fluorescence phase contrast microscope with a 40× objective. The resulting images were analyzed by ImageJ, and the foci were counted."}, "[2]": {"assay": "SEM analysis of C60-ser aggregates", "format": "physicochemical", "conditions": "frozen and vacuum-dried solutions", "method": "Solutions of C60-ser were frozen with liquid nitrogen and dried under high vacuum while still frozen. FIGS. 3A and 3B show example scanning electron microscopy (SEM) images of aggregates of C60-ser. The aggregates formed when solid C60-ser was dissolved in water or an aqueous salt solution. The aggregates formed within a period of seconds to several hours, after which the system remained in equilibrium."}}}
{"molecule": "O=C(NC(CO)CO)C1(C(=O)NC(CO)CO)C23c4c5c6c7c8c4-c4c2c2c9c%10c4C4%11c%12c-%10c%10c%13c%14c%12-c%12c(c-7c7c%15c%12C%14%12C(C(=O)NC(CO)CO)(C(=O)NC(CO)CO)C%12%14c%12c%16c%17c%18c(c%12-%15)C7%12C(C(=O)NC(CO)CO)(C(=O)NC(CO)CO)C6%12c6c-5c5c7c(c6-%18)C%176C(C(=O)NC(CO)CO)(C(=O)NC(CO)CO)C6%12c6c-7c(c-2c2c6-c6c%12c-%16c%14c-%13c6C%106C(C(=O)NC(CO)CO)(C(=O)NC(CO)CO)C926)C513)C84C%11(C(=O)NC(CO)CO)C(=O)NC(CO)CO", "note": "(stereo not drawn) [C60-ser, C60-serinol]", "values": [{"measurement": "Stability of C60-ser (hexakis-adduct peak)", "setting": "[1]; Solid form at 4° C. under nitrogen, 1 day", "result": "100 ± 2", "unit": "%"}, {"measurement": "Stability of C60-ser (hexakis-adduct peak)", "setting": "[1]; Solid form at 4° C. under nitrogen, 7 days", "result": "100 ± 1", "unit": "%"}, {"measurement": "Stability of C60-ser (hexakis-adduct peak)", "setting": "[1]; Solid form at 4° C. under nitrogen, 28 days", "result": "100 ± 1", "unit": "%"}, {"measurement": "Stability of C60-ser (hexakis-adduct peak)", "setting": "[1]; Solid form at 4° C. under nitrogen, 120 days", "result": "100 ± 2", "unit": "%"}, {"measurement": "Stability of C60-ser (hexakis-adduct peak)", "setting": "[1]; Solution in DI water at 4° C., 1 day", "result": "100 ± 2", "unit": "%"}, {"measurement": "Stability of C60-ser (hexakis-adduct peak)", "setting": "[1]; Solution in DI water at 4° C., 7 days", "result": "100 ± 2", "unit": "%"}, {"measurement": "Stability of C60-ser (hexakis-adduct peak)", "setting": "[1]; Solution in DI water at 4° C., 28 days", "result": "100 ± 3", "unit": "%"}, {"measurement": "Stability of C60-ser (hexakis-adduct peak)", "setting": "[1]; Solution in DI water at 4° C., 120 days", "result": "98 ± 3", "unit": "%"}, {"measurement": "Stability of C60-ser (hexakis-adduct peak)", "setting": "[1]; Solution in DI water at room temperature, 1 day", "result": "100 ± 2", "unit": "%"}, {"measurement": "Stability of C60-ser (hexakis-adduct peak)", "setting": "[1]; Solution in DI water at room temperature, 7 days", "result": "100 ± 2", "unit": "%"}, {"measurement": "Stability of C60-ser (hexakis-adduct peak)", "setting": "[1]; Solution in DI water at room temperature, 28 days", "result": "96 ± 3", "unit": "%"}, {"measurement": "Stability of C60-ser (hexakis-adduct peak)", "setting": "[1]; Solution in DI water at room temperature, 120 days", "result": "95 ± 4", "unit": "%"}, {"measurement": "degradation of the hexakis-adduct peak", "setting": "[1]; solid at 4° C. under nitrogen", "result": "no degradation of the hexakis-adduct peak was observed"}, {"measurement": "percent viability", "setting": "HepG2 cells", "result": "did not result in a significant decrease in viability"}, {"measurement": "percent viability", "setting": "N2A cells", "result": "did not result in a significant decrease in viability"}, {"measurement": "fraction of surviving cells", "setting": "NIH3T3 cells; NIH3T3, 100 μM 2 hours before irradiation", "result": "increased the fraction of surviving cells"}, {"measurement": "dose enhancement factor (DEF) at 20% surviving fraction", "setting": "NIH3T3 cells; NIH3T3, 100 μM 2 hours, 0-6 Gy 230 MeV proton", "result": "0.85±0.03"}, {"measurement": "γH2AX foci vs control", "setting": "HUVEC cells; 100 μM 2 hours before 0.5 Gy proton radiation", "result": "trend towards reduction in total foci formed, but it was not statistically significant"}, {"measurement": "γH2AX foci vs control", "setting": "HUVEC cells; 100 μM 2 hours before 1 Gy proton radiation", "result": "significant decrease in the number of foci"}, {"measurement": "γH2AX foci vs control", "setting": "HUVEC cells; 100 μM 2 hours, absence of radiation", "result": "no significant different in foci expression"}, {"measurement": "internal diameters of hollow hull aggregates", "setting": "[2]", "result": "40-1000 nm"}]}
